Data set [1] in a line: Plasma pharmacokinetics of DTX in rats with or without OPD (LC-MS/MS). As to conditions: male, Sprague-Dawley, rat, po, 50 mg/kg.
Description: Ten 8-week-old male Sprague-Dawley rats were randomly divided into the following two groups (5 rats in each group). Group 1: rats were administered a single oral dose of 50 mg/kg of DTX dissolved in 0.5% CMC-Na. […] Blood samples were centrifuged for 10 min at approximately 4000 rpm. 100 µL of plasma was collected from the upper layer, and mixed with 20 µL of taxol internal standard solution for 30 s followed by 500 µL of methanol for 3 min, then centrifuged at 15,000 rpm for 10 min. The supernatant was separated and collected. 5 μL of the supernatant was injected into the LC-MS/MS system for detection and quantification.
Separation was performed on a ZORBAX Extend-C18 (2.1 × 100 mm, 3.5 µm, Agilent, Palo Alto, CA, USA). The column oven was maintained at 25 °C.
In another data set the test system is MDCK-MDR1 cells. Description: MTT assay, viability of MDCK-MDR1 cells. The format is cell-based, canine. The method, then:
The effects of OPD and VCR on the viability of MDCK-MDR1 cells were observed by a MTT assay.
MDCK-MDR1 Cells were obtained from Shanghai Zhongya Institute of Biological Genes Institute (CinoAsia Co., Ltd., Shanghai, China). Cells were cultured as previously described. In brief, cells were cultured in high glucose DMEM medium supplemented with 10% fetal bovine serum (FBS), 1% non-essential amino acids, 1% L-glutamine, and a penicillin-streptomycin double antibiotic solution. Cells were incubated at 37 °C with 5% CO2 and cell medium was changed every other day.
(In general: Tetrazolium assays rely on reduction of a dye to a coloured formazan, in cell work by metabolically active cells.)

For another data set, the system named is P-gp. Description: Western blotting of P-gp protein expression in MDCK-MDR1 cells. The format is cell-based, canine. Particulars: OPD 17.5 and 70 μmol/L for 48 h, in comparison with control group. The method, then:
MDCK-MDR1 cells treated with different concentrations of OPD (3.5, 17.5 and 70 μmol/L) for 48 h were subject to western blotting for determination of P-gp protein level. Cells were washed 3 times with PBS. Total protein was extracted and the protein concentrations were measured according to the manufacturer’s instructions. Cell protein were denatured at 70 °C for 10 min. Protein samples with equivalent amounts were loaded and separated by 10% SDS-polyacrylamide gel electrophoresis and transferred to a polyvinylidene difluoride membranes. Membranes were blocked in 5% powdered non-fat milk solution for 4 h at room temperature and incubated with anti-P-gp primary antibody (GADPH was used as a loading control) overnight at 4 °C followed by an goat anti-mouse IgG secondary antibody (1:5000 dilutions) for 4 h at room temperature. Membranes were incubated with an ECL chromogenic solution for 4 min in the dark. The target protein bands were detected and protein intensity was calculated by a gel imaging system (Beta 3, Bio-Rad, Irvine, CA, USA).
For orientation: Immunoblotting shows a protein as a band on a membrane.

Data set [2] deals with recombinant human P-gp membranes (Homo sapiens, UniProt P08183). Particulars: compared to basal P-gp ATPase activity.
Sequence of recombinant human P-gp membranes (P08183 whole entry): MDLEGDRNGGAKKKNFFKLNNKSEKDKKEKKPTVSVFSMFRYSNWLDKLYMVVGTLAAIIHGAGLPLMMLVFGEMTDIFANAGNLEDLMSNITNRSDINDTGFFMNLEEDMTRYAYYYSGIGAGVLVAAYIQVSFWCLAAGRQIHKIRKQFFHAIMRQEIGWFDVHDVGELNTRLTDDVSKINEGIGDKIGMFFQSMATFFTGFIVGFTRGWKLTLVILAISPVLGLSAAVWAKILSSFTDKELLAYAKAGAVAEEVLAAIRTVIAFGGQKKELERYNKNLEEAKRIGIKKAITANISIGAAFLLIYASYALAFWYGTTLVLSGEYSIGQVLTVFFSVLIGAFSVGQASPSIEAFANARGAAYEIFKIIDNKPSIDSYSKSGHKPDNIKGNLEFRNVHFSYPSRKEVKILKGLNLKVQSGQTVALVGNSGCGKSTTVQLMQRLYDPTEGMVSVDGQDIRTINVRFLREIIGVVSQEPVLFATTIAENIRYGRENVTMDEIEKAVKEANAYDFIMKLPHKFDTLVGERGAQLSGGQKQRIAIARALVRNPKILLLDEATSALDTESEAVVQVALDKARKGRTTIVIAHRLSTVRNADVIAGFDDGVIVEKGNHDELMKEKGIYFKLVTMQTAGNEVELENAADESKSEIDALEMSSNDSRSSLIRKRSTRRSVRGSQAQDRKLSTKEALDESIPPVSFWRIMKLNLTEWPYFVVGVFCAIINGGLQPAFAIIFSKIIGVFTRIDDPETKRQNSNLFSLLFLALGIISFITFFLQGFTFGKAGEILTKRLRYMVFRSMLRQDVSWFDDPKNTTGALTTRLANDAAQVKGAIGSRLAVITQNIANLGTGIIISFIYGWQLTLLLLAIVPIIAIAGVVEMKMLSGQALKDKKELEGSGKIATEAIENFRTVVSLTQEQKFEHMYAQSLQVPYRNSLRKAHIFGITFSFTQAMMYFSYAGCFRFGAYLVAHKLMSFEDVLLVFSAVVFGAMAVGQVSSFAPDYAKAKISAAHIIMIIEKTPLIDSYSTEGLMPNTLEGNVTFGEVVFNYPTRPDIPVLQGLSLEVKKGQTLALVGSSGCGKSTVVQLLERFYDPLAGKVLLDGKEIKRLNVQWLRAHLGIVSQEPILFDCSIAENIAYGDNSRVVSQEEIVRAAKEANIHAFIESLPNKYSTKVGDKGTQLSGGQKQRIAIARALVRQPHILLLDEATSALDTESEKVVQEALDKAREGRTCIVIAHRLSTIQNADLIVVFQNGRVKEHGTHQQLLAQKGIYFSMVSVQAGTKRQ
Description: P-gp ATPase activity was measured using P-gp-Glo™ assay systems kit according to the manufacturer’s instructions, the method detail of which was also described in our previous study [29]. […] After 40 min, ATP detection reagent was added, respectively. The unconsumed ATP detection reagent reacted with luciferase at room temperature for 20 min and the chemiluminescence intensity was detected. The average relative light units (RLU) was calculated as follows:RLUNa3VO4 − RLUNT = ΔRLUbasal(1) RLUNa3VO4 − RLUTC = ΔRLUTC(2)
ΔRLUbasal, the decrease in luminescence of the untreated group (RLUNT) compared to the Na3VO4 group (RLUNa3VO4), represents the basal P-gp ATPase activity. ΔRLUTC, the decrease in luminescence of the test compound-treated group (RLUTC) compared to the Na3VO4 group (RLUNa3VO4), indicates the P-gp ATPase activity in the presence of the test compound. The decrease in luminescence reflect ATP consumption by P-gp and is proportional to P-gp activity.
Another data set relates to MDR1. Description: RT-qPCR of MDR1 mRNA expression in MDCK-MDR1 cells. The format is cell-based, human. Particulars: OPD 3.5, 17.5 and 70 μmol/L for 48 h, compared to untreated cells. The method, then: MDCK-MDR1 cells were cultured for 5 days and treated with different concentrations of OPD (3.5, 17.5 and 70 μmol/L) for 48 h to measure MDR1 gene expression level. The total celluar RNA was extracted by the RNA easy Total RNA mini kit and reverse transcribed to cDNA with reverse transcription kit according to the manufacturer’s protocol. PCR primer design and synthesis were performed by the primer design software provided by Applied Biosystems. Primer sequences for MDR1 and hRpIPIv-F (loading internal control) genes are as follows: human hRpIP1v-F forward, 5′-[…]-3′; human hRpIP1v-F reverse, 5′-[…]-3′; human MDR1 forward, 5′-[…]-3′, human MDR1 reverse, 5′-[…]-3′. PCR amplification was performed using Power SYBR Green PCR Mix according to the manufacturer’s protocol (Life Technologies, Carlsbad, CA, USA).
(In general: Real-time PCR tracks product formation cycle by cycle.)

Data set [3] is described as follows: Transport of VCR across MDCK-MDR1 cell monolayer (A→B). The format is in vitro ADME, canine. Particulars: dog, MDCK-MDR1, pH 7.4, VCR 264.46 μmol/L alone, 37 °C, n = 3.
Description: Briefly, cell monolayers were pre-incubated in Hank’s buffered salt solution (HBSS, pH 7.4) for 30 min at 37 °C. Trans-epithelial electric resistance (TEER) values of the MDCK-MDR1 cell monolayer ranged from 500 to 800 Ω·cm^2. All drugs were dissolved in DMSO and diluted in HBSS. The final concentration of DMSO is less than 1%. […] After treatments, cells were incubated at 37 °C for 2 h. After 2 h, 500 µL aliquots were taken from the basal side, mixed with 500 µL methanol, vortexed 2 min and then centrifuged for 10 min at 16,000 rpm. The supernatants were collected to measure the concentrations of compounds by high performance liquid-chromatography/mass spectroscopy (LC-MS/MS). Apparent permeability (Papp) values are calculated from the relationship: Papp=dQ/dt/A×C0 where dQ/dt is the cumulative transport rate of the compound on the receiving side (µg/s), A is the surface area of the cell monolayer (cm^2), and C0 is the initial concentration in the donor compartment (µg/mL).

Counter-ions that a name gives are not always drawn. Like-named read-outs stand apart in the source and are kept apart here.

As usually defined, the AUC(0-inf) is total exposure, with the tail of the curve extrapolated. A lower AUC(0-inf) goes with low exposure. A word on the AUC(0-t): it is the area under the concentration-time curve up to a stated or last time point. Read a high AUC(0-t) as more exposure. The Cmax is the highest concentration seen after dosing. Usually MRT inf stands for a mean duration of stay, worked out from the concentration-time curve. As usually defined, the MRT last is the average time that molecules of a dose stay in the body. The half-life is the time in which the quantity being followed falls by half. Broadly, the Papp A→B is how fast a substance crosses the layer from the apical side. The low end stands for slow passage, the high end for fast passage.

In data set [1], `CC(=O)O[C@@]12CO[C@@H]1C[C@H](O)[C@@]1(C)C(=O)[C@H](O)C3=C(C)[C@@H](OC(=O)[C@H](O)[C@@H](NC(=O)OC(C)(C)C)c4ccccc4)C[C@@](O)([C@@H](OC(=O)c4ccccc4)[C@H]21)C3(C)C` [DTX, Docetaxel] had an AUC(0-inf) of 306 ± 21.1 ng·h/mL, an AUC(0-t) of 276 ± 19.1 ng·h/mL, a peak concentration (Cmax) of 118 ± 10.9 ng/mL and an MRT inf of 4.29 ± 0.98 h. Further, in data set [1], the MRT last is 2.96 ± 0.22 h and the half-life is 4.13 ± 1.08 h.

`CC1(C)O[C@H]1COc1c2ccoc2cc2oc(=O)ccc12` [OPD, Oxypeucedanin]: the “cytotoxicity (viability of MDCK-MDR1 cells, MTT assay)” value in the data set with MDCK-MDR1 cells (OPD 3.82, 19.08, 76.30 μmol/L) was “no obvious cytotoxicity”. Also, the P-gp protein expression result with P-gp was “obvious reduction”. The results for the “increase in P-gp ATPase activity” value in data set [2] (OPD 3.5 μmol/L), in data set [2] (OPD 17.5 μmol/L) and in data set [2] (OPD 70 μmol/L) were 0.55 fold, 0.31 fold and 0.50 fold, respectively. In addition, the “mRNA expression of MDR1” value with MDR1 is listed as “significantly downregulated”.

For `CC[C@]1(O)C[C@H]2CN(CCc3c([nH]c4ccccc34)[C@@](C(=O)OC)(c3cc4c(cc3OC)N(C=O)[C@H]3[C@@](O)(C(=O)OC)[C@H](OC(C)=O)[C@]5(CC)C=CCN6CC[C@]43[C@@H]65)C2)C1` [VCR, Vincristine sulfate], in the data set on MDCK-MDR1 cells (VCR 264.46 μmol/L), the “cytotoxicity (viability of MDCK-MDR1 cells, MTT assay)” value is reported as “no obvious cytotoxicity”. Also, in data set [3], the Papp A→B at 2 h, 264.46 μmol/L was 0.37 ± 0.04 ×10⁻⁶ cm/s.

For the origin of these results see paper PMC6222843, “Reversal Effect of Oxypeucedanin on P-glycoprotein-mediated Drug Transport” (Molecules : A Journal of Synthetic Chemistry and Natural …, 2018).
